For six compounds, Kd results are on record in ChEMBL document CHEMBL1133396, “Construction of HIV Rev peptides containing peptide nucleic acid that bind HIV RRE IIB RNA” (Bioorg Med Chem Lett, 2000).

SMILES strings stand for the structures. Peptide text beside a SMILES is read from it.

The assay addresses Nucleic Acid. The experiment in a line: Dissociation constant against stem loop IIB region of RRE-response element RNA was reported. In kind it is nucleic-acid assay, Human immunodeficiency virus 1.

The compound `C[C@H](NC(=O)[C@H](CCC(N)=O)NC(=O)[C@H](CCCNC(=N)N)NC(=O)[C@@H](NC(=O)CCC(=O)O)[C@@H](C)O)C(=O)N[C@@H](CCCNC(=N)N)C(=O)N[C@@H](CCCNC(=N)N)C(=O)N[C@@H](CC(N)=O)C(=O)N[C@@H](CCCNC(=N)N)C(=O)N[C@@H](CCCNC(=N)N)C(=O)N[C@@H](CCCNC(=N)N)C(=O)N[C@@H](CCCNC(=N)N)C(=O)N[C@@H](Cc1c[nH]c2ccccc12)C(=O)N[C@@H](CCCNC(=N)N)C(=O)N[C@@H](CCC(=O)O)C(=O)N[C@@H](CCCNC(=N)N)C(=O)N[C@@H](CCC(N)=O)C(=O)NCCN(CC(N)=O)C(=O)Cn1cnc2c(N)ncnc21` (HELM PEPTIDE1{[O=C(O)CCC(=O)[*:2]].T.R.Q.A.R.R.N.R.R.R.R.W.R.E.R.Q.[NC(=O)CN(CCN[*:1])C(=O)Cn1cnc2c(N)ncnc21]}$$$$V2.0) registered an equilibrium dissociation constant (Kd) of 10 nM. Next, `C[C@H](NC(=O)[C@H](CCC(N)=O)NC(=O)[C@H](CCCNC(=N)N)NC(=O)[C@@H](NC(=O)CCC(=O)O)[C@@H](C)O)C(=O)N[C@@H](CCCNC(=N)N)C(=O)N[C@@H](CCCNC(=N)N)C(=O)N[C@@H](CC(N)=O)C(=O)N[C@@H](CCCNC(=N)N)C(=O)N[C@@H](CCCNC(=N)N)C(=O)N[C@@H](CCCNC(=N)N)C(=O)NCCN(CC(=O)N[C@@H](Cc1c[nH]c2ccccc12)C(=O)N[C@@H](CCCNC(=N)N)C(=O)N[C@@H](CCC(=O)O)C(=O)N[C@@H](CCCNC(=N)N)C(=O)N[C@@H](CCC(N)=O)C(=O)N[C@@H](CCCNC(=N)N)C(N)=O)C(=O)Cn1ccc(N)nc1=O`: 240 nM. With `C[C@H](NC(=O)[C@H](CCC(N)=O)NC(=O)[C@H](CCCNC(=N)N)NC(=O)[C@@H](NC(=O)CCC(=O)O)[C@@H](C)O)C(=O)N[C@@H](CCCNC(=N)N)C(=O)N[C@@H](CCCNC(=N)N)C(=O)N[C@@H](CC(N)=O)C(=O)N[C@@H](CCCNC(=N)N)C(=O)N[C@@H](CCCNC(=N)N)C(=O)N[C@@H](CCCNC(=N)N)C(=O)N[C@@H](CCCNC(=N)N)C(=O)N[C@@H](Cc1c[nH]c2ccccc12)C(=O)N[C@@H](CCCNC(=N)N)C(=O)N[C@@H](CCC(=O)O)C(=O)N[C@@H](CCCNC(=N)N)C(=O)N[C@@H](CCC(N)=O)C(=O)NCC(=O)NCC(N)=O` (HELM PEPTIDE1{[O=C(O)CCC(=O)[*:2]].T.R.Q.A.R.R.N.R.R.R.R.W.R.E.R.Q.G.G.[am]}$$$$V2.0), binding was put at a Kd of 42 nM. Compound `C[C@H](NC(=O)[C@H](CCC(N)=O)NC(=O)[C@H](CCCNC(=N)N)NC(=O)[C@@H](NC(=O)CCC(=O)O)[C@@H](C)O)C(=O)N[C@@H](CCCNC(=N)N)C(=O)N[C@@H](CCCNC(=N)N)C(=O)N[C@@H](CC(N)=O)C(=O)N[C@@H](CCCNC(=N)N)C(=O)N[C@@H](CCCNC(=N)N)C(=O)N[C@@H](CCCNC(=N)N)C(=O)N[C@@H](CCCNC(=N)N)C(=O)N[C@@H](Cc1c[nH]c2ccccc12)C(=O)N[C@@H](CCCNC(=N)N)C(=O)N[C@@H](CCC(=O)O)C(=O)N[C@@H](CCCNC(=N)N)C(=O)N[C@@H](CCC(N)=O)C(=O)N[C@@H](CCCNC(=N)N)C(=O)NCC(N)=O` (HELM PEPTIDE1{[O=C(O)CCC(=O)[*:2]].T.R.Q.A.R.R.N.R.R.R.R.W.R.E.R.Q.R.G.[am]}$$$$V2.0) gave a Kd of 8 nM. Take `C[C@H](NC(=O)[C@H](CCC(N)=O)NC(=O)[C@H](CCCNC(=N)N)NC(=O)[C@@H](NC(=O)CCC(=O)O)[C@@H](C)O)C(=O)N[C@@H](CCCNC(=N)N)C(=O)NCCN(CC(=O)N[C@@H](CC(N)=O)C(=O)N[C@@H](CCCNC(=N)N)C(=O)N[C@@H](CCCNC(=N)N)C(=O)N[C@@H](CCCNC(=N)N)C(=O)N[C@@H](CCCNC(=N)N)C(=O)N[C@@H](Cc1c[nH]c2ccccc12)C(=O)N[C@@H](CCCNC(=N)N)C(=O)N[C@@H](CCC(=O)O)C(=O)N[C@@H](CCCNC(=N)N)C(=O)N[C@@H](CCC(N)=O)C(=O)N[C@@H](CCCNC(=N)N)C(N)=O)C(=O)Cn1ccc(N)nc1=O`: the equilibrium dissociation constant (Kd) was determined as 420 nM. Next, `C[C@H](NC(=O)[C@H](CCC(N)=O)NC(=O)[C@H](CCCNC(=N)N)NC(=O)[C@@H](NC(=O)CCC(=O)O)[C@@H](C)O)C(=O)N[C@@H](CCCNC(=N)N)C(=O)N[C@@H](CCCNC(=N)N)C(=O)N[C@@H](CC(N)=O)C(=O)N[C@@H](CCCNC(=N)N)C(=O)N[C@@H](CCCNC(=N)N)C(=O)N[C@@H](CCCNC(=N)N)C(=O)N[C@@H](CCCNC(=N)N)C(=O)N[C@@H](Cc1c[nH]c2ccccc12)C(=O)N[C@@H](CCCNC(=N)N)C(=O)N[C@@H](CCC(=O)O)C(=O)N[C@@H](CCCNC(=N)N)C(=O)N[C@@H](CCC(N)=O)C(=O)NCCN(CC(N)=O)C(=O)Cn1ccc(N)nc1=O` (HELM PEPTIDE1{[O=C(O)CCC(=O)[*:2]].T.R.Q.A.R.R.N.R.R.R.R.W.R.E.R.Q.[NC(=O)CN(CCN[*:1])C(=O)Cn1ccc(N)nc1=O]}$$$$V2.0): 21 nM.

In general, Kd refers to a measure of binding affinity in units of concentration.
